Entries after “also recorded” stand apart in the source; their conditions may differ. Read-outs that look alike come from different tables or passages of the source. Positions of bridges follow the written chain, without caps; N, C: chain ends. Residues, ends and D or L forms follow the SMILES beside them. No end group written: not given here. *: point of attachment. Biotin = O=C1N[C@H]2[C@H](CS[C@H]2CCCCC(=O)*)N1
How the values were obtained:
CEM cells [1] = assay: Annexin-V-FITC flow cytometry of phosphatidyl serine exposure (apoptosis), CEM cells; type: cell-based, human; details: 20 μM, control experiments
Procedure: FIGS. 10a–d are graphs showing comparisons of phosphatidyl serine exposure on the outer surface of CEM cells following a 2.5-hour incubation with or without 40 μM cyclized L1AD3. After incubation, cells were washed twice with cold PBS prior to adding FITC-conjugated Annexin-V. Flow cytometry using a B-D FACSCalibur was performed, and 10,000 cells were analyzed using the B-D CellQuest program. Individual cells are represented in the dot plots on the left (FIGS. 10a and 10c), and histograms of the same data are on the right (FIGS. 10b and d). Whereas untreated tumor cells show less than 6% spontaneous apoptosis (FIG. 10c, lower left quadrant), 93% of cells treated with L1AD3 undergo apoptosis after 2.5 hours (FIG. 10d, lower right quadrant).
Flow cytometry using fluorescent Annexin-V distinguishes cells with externalized phosphatidyl serine. As long as the cell's plasma membrane remains intact, fluorescent dyes such as ethidium bromide or propidium iodide are excluded. A 40 μM concentration of L1AD3 caused approximately 93% of CEM cells to become Annexin-V-positive within 2.5 hours, which is unusually short for signs of apoptosis to occur. Camptothecin, a cancer chemotherapeutic agent administered in control experiments at 20 μM, caused only 33% of the cells to appear apoptotic. […]

CEM cells [2] = assay: cell permeability to ethidium bromide / propidium iodide, CEM cells; type: cell-based, human; details: for cell permeability to ethidium bromide or propidium iodide: CEM cells
Procedure: FIG. 11 is a graph showing changes in cell permeability to ethidium bromide following incubation with L1AD3 or with native CTX. CEM cells (10^6/ml) were incubated in quartz cuvets in a Shimidzu fluorescence spectrophotometer with 1 μg/ml ethidium bromide. Either CTX at a final concentration of 1.6 μM or L1AD3 at a final concentration of 40 μM was added, and readings were taken at 5-minute intervals, with excitation at 526 nm and emission measured at 608 nm.
Flow cytometry using fluorescent Annexin-V distinguishes cells with externalized phosphatidyl serine. As long as the cell's plasma membrane remains intact, fluorescent dyes such as ethidium bromide or propidium iodide are excluded. A 40 μM concentration of L1AD3 caused approximately 93% of CEM cells to become Annexin-V-positive within 2.5 hours, which is unusually short for signs of apoptosis to occur. Camptothecin, a cancer chemotherapeutic agent administered in control experiments at 20 μM, caused only 33% of the cells to appear apoptotic.
Since whole CTX can rapidly permeabilize leukemic T-lymphocytes, separate experiments using a fluorescence spectrophotometer were applied to examine changes in plasma membrane permeability to ethidium bromide following exposure of CEM cells either to L1AD3 or to CTX.

CEM cells [3] = assay: [3H]-thymidine incorporation into DNA of CEM cells; type: cell-based, human; details: for EC50: CEM cells, FIG. 8, read-out: EC50, inhibition of thymidine incorporation into DNA
Procedure: FIG. 8 is a graph showing percent inhibition of thymidine incorporation as a function of peptide concentration. Each well of a microtiter plate received 200,000 CEM cells in log phase of growth, suspended in 50 μl complete medium. The same volume of diluted peptide, either linear or cyclized, was added to achieve the final concentrations shown. After a 1 -hour incubation at 37 degrees C., 1 μCi of [^3H]-thymidine in 25 μl medium was added, and the plates were incubated another 3 hours prior to harvesting. Control cells were incubated without either peptide, but with the same volume of medium.
The peptide called L1AD3, Seq. ID No. 1, prevents the proliferation of cancerous human T-lymphocytes (CEM cell line) by inhibiting incorporation of thymidine into DNA.
(§1) The L1AD3 peptide stops tumor cell division in both Jurkat and CEM cells with an EC50 of approximately 5 μM, as shown in FIG. 8. This is indicated by the inhibition of thymidine incorporation into DNA. […] In contrast to CTX, which rapidly depolarized skeletal muscle (Dufton and Hider, 1991), and which at 1 μM concentrations causes cessation of beating of embryonic chicken heart cells within 5–10 seconds, the L1AD3 peptide at 40 μM concentrations has no effect upon the beating of heart cells over 2 hours of observation. Therefore, it is believed that the L1AD3 peptide, along with the other seven peptides, is not harmful to the heart, in contrast to native CTX.

[4] = test system: normal human peripheral white blood cells (PBL's); assay: Annexin-V binding / phosphatidyl serine externalization, normal human white blood cells; type: cell-based
Jurkat cells = assay: thymidine incorporation into DNA of Jurkat cells; type: cell-based, human; details: read-out: EC50, inhibition of thymidine incorporation into DNA
Procedure: as §1

[5] = test system: embryonic chicken heart cells; assay: beating of heart cells; type: cell-based; details: for time to cessation of beating of heart cells: 1 μM
Procedure: (§2) The L1AD3 peptide composition, Seq. […] It is believed that there is an absence of the L1AD3 protein receptor on the surface of normal human white blood cells, whereas the L1AD3 protein receptor target is found in the surface of leukemic T-cells.
as §1

normal human cells = assay: permeabilization of normal human cells (propidium iodide, ethidium bromide, trypan blue); type: cell-based; details: ethidium bromide or trypan blue
Excerpt: as §2

CEM cells [6] = test system: CEM cells
CEM cells [7] = test system: CEM cells; remark: listed apart in the source
Procedure: To investigate peptide binding to cell surfaces, the peptide was modified by N-terminal biotinylation. […] A biotin-avidin sorbant assay, similar to an ELISA procedure was performed to measure binding. In this assay, horseradish peroxidase-conjugated avidin was employed rather than an enzyme-linked second antibody. Mouse anti-human MHC-1 (anti HLA-A,-B,-C) antibody was used to hold CEM or normal human cells to the surface of 96-well microtiter plates.
(§3) In order to investigate the nature of the binding site for L1AD3 on tumor cells, trypsin was added to the cells and subsequently quenched by adding enzyme inhibitor prior to measurements of binding, using biotinylated peptide in either the solid-phase or the fluorescent assay described above.

CEM cells [8] = assay: biotin-avidin sorbant binding assay, adherent CEM cells; parameters: species or system human; details: for binding after pretreatment of cells with trypsin: solid-phase assay
Procedure: CEM cells were held on the surface of 96-well plates previously coated with anti-human MHC-1 antibody (anti-HLA-A,B,C). After plates containing adherent cells were blocked with bovine albumin and washed with PBS, biotinylated L1AD3, either alone (upper trace) or in a 1:1 ratio with non-biotinylated L1AD3 (lower trace), was added to triplicate wells to achieve the indicated final concentrations. After a 1-hour incubation at 37 degrees, plates were washed three times with PBS, and avidin-HRP was added. Enzyme substrate (ABTS) was added, and color development at 415 nm was monitored using an ELISA plate reader with printed output.
The lower two traces in the figure were developed as described above for FIG. 12, except that the target cells were human PBL's that had been isolated about 4 hours before the assay. […] In this case, 0.0125% trypsin was incubated with adherent cells for 10 min, followed by three washes and subsequent addition of soybean trypsin inhibitor.
(§4) A biotin-avidin sorbant assay, similar to an ELISA procedure was performed to measure binding. In this assay, horseradish peroxidase-conjugated avidin was employed rather than an enzyme-linked second antibody. Mouse anti-human MHC-1 (anti HLA-A,-B,-C) antibody was used to hold CEM or normal human cells to the surface of 96-well microtiter plates.
as §3

CEM cells [9] = assay: luciferin/luciferase bioluminescence assay of total ATP in CEM cells; type: cell-based, human
Procedure: FIG. 9 is a graph showing the amounts of total ATP present in cell lysates following incubation of CEM cells with peptide analogs. Cyclized peptides were added at double their final concentration, which was 20 μM, to triplicate wells of a black 96-well reaction plate. CEM cells (50,000 per well) were added in the same volume, and the plate was incubated 30 minutes at 37 degrees. Lysis buffer (Sigma) was added, followed by luciferin/luciferase assay buffer (Molecular Probes). The plate was sealed with a clear plastic film and read using a Packard Top-Count reader. Cells with medium only had ATP levels of 1073±160 in arbitrary luminescence units. Peptide analogs are identified by single amino acid modifications.
Changes in cellular energy levels can contribute to the process of cytotoxicity. ATP was measured using a 96-well luciferin/luciferase bioluminescence assay system and found a 60% reduction in ATP after 30 minutes' incubation of CEM cells with 20 μM L1AD3, as shown in FIG. 9. While somewhat large, this reduction of ATP is consistent with apoptosis, inasmuch as necrosis tends to occur when ATP levels drop to below 30% of control.

[10] = test system: normal human peripheral blood lymphocytes; assay: biotin-avidin sorbant binding assay, normal human PBL's; details: with or without non-biotinylated L1AD3
Procedure: FIG. 13 is a graph showing inhibition of specific binding of biotinylated L1AD3 to normal human peripheral blood lymphocytes by non-biotinylated L1AD3, and abolition of binding by pretreatment of CEM cells with trypsin. The lower two traces in the figure were developed as described above for FIG. 12, except that the target cells were human PBL's that had been isolated about 4 hours before the assay. […] In this case, 0.0125% trypsin was incubated with adherent cells for 10 min, followed by three washes and subsequent addition of soybean trypsin inhibitor.
as §4

[11] = test system: human leukemic T-lymphocytes; details: previous comparisons of native toxins (Stevens-Truss & Hinman, 1997); cited from earlier work

In the case of `CC[C@@]1(O)C(=O)OCc2c1cc1n(c2=O)Cc2cc3ccccc3nc2-1` [Camptothecin], the “cells apoptotic (Annexin-V)” value (CEM cells [1]) is reported as 33%, the “cells apoptotic (Annexin-V)” value (CEM cells [1]; listed as camptothecin) is reported as 23% and the “cell permeability to ethidium bromide or propidium iodide” value (CEM cells [2]) is reported as “neither L1AD3 nor camptothecin caused increases in cell permeability”.

For `CC(C)C[C@@H]1NC(=O)[C@H](CCCCN)NC(=O)[C@H](CC(N)=O)NC(=O)[C@@H](NC(=O)[C@H](CCCCN)NC(=O)[C@@H](N)CC(C)C)CSSC[C@@H](C(=O)O)NC(=O)[C@H]([C@@H](C)O)NC(=O)[C@H](CCCCN)NC(=O)[C@H](Cc2ccc(O)cc2)NC(=O)[C@H](Cc2ccccc2)NC(=O)[C@H](CC(C)C)NC(=O)[C@@H]2CCCN2C(=O)[C@H](C(C)C)NC1=O` [L1AD3, Leu-Lys-Cys-Asn-Lys-Leu-Val-Pro-Leu-Phe-Tyr-Lys-Thr-Cys] (H-LKCNKLVPLFYKTC-OH; disulfide 3-14), the EC50 (CEM cells [3]) was about 5 µM, the “externalization of phosphatidyl serine / Annexin-V binding in normal human white blood cells” value ([4]; 40 μM peptide (same concentration as CEM test)) was “did not induce externalization of phosphatidyl serine; also recorded: not affected above background levels” and the “Annexin-V labelling of T-cells, B-cells and macrophages among PBL's” value ([4]; 1-hour incubation, double-labeled with anti CD-3, CD-19, CD-14) was “all were within background levels”. For the same compound, the EC50 (Jurkat cells) was about 5 µM, the “effect upon the beating of heart cells” value ([5]; 40 μM, 2 hours) was “no effect” and the “permeabilizing effect on normal human cells” value (normal human cells) was “no permeabilizing effect”.

In the case of `CC(C)C[C@H](NC(=O)[C@H](CCCCN)NC(=O)[C@H](CC(N)=O)NC(=O)[C@H](CS)NC(=O)[C@H](CCCCN)NC(=O)[C@@H](N)CC(C)C)C(=O)N[C@H](C(=O)N1CCC[C@H]1C(=O)N[C@@H](CC(C)C)C(=O)N[C@@H](Cc1ccccc1)C(=O)N[C@@H](Cc1ccc(O)cc1)C(=O)N[C@@H](CCCCN)C(=O)N[C@H](C(=O)N[C@@H](CS)C(=O)O)[C@@H](C)O)C(C)C` [Linear L1AD3] (H-LKCNKLVPLFYKTC-OH; N-terminus and C-terminus assumed), the “EC50 of linear peptide relative to cyclized counterpart” value (CEM cells [3]) is reported as “more than eight times” and the EC50 (CEM cells [3]) is reported as about 43 µM.

With “Biotin-LKCNKLVPLFYKTC (cysteine pairing not given here) [biotinylated L1AD3]” the “other activities after biotinylation” value (CEM cells [6]) was “significantly diminished”, the “fluorescence increase over cells not incubated with biotinylated peptide” value (CEM cells [7]; avidin-FITC, CEM cells in suspension) was 48% and the “binding after pretreatment of cells with trypsin” value (from here on “binding after pretreatment”) (CEM cells [7]; fluorescent assay) was “abolished binding”. For the same compound, the “binding to human cancer cells” value (CEM cells [8]) was “bound human cancer cells; also recorded: preserves its ability to bind cancer cells”, the Kd (CEM cells [8]; saturable binding, read-out: apparent KD of binding to CEM cells) was about 6 µM and the “binding after pretreatment” value (CEM cells [8]) was “abolished”. The “binding after pretreatment” value (CEM cells [8]; listed as biotinylated peptide) was “abolished binding”, the “ability to reduce ATP levels in cancer cells” value (CEM cells [9]) was “retains its ability to reduce ATP levels” and the “binding to normal human white blood cells / PBL's” value [10] was “did not bind appreciably”.

With “LKCNKLVPLFYKTCPAGKNLCYKMFMVATPKVPVKRGCIDVCPKSSLL VKYVCCNTDRCN (LKCNKLVPLFYKTCPAGKNLCYKMFMVATPKVPVKRGCIDVCPKSSLLVKYVCCNTDRCN; Naja naja atra) [CTX, parent 60-amino acid cytotoxin purified from the Taiwan cobra, Naja naja atra]” the “time to cessation of beating of heart cells” value [5] was 5 to 10 s, the “time to cessation of beating of heart cells” value ([5]; listed as “parent” cardiotoxin) was 10 to 30 s and the “time until cells began to admit ethidium bromide” value (CEM cells [2]; 1.6 μM, fluorescence spectrophotometer) was at most 15 min. For the same compound, the “time to induced permeability to propidium iodide” value (CEM cells [2]; 10 μM, fluorescence microscopy) was at most 30 s, the “cell permeability to ethidium bromide or propidium iodide” value (CEM cells [2]) was “rapidly became permeable” and the “toxicity toward human leukemic T-lymphocytes” value [11] was “highly toxic”.
